# Key:
# breast cancer tumors = experiment: Breast tumor in mice; format: in vivo, mouse
# Experimental: We tested piperlongumine in colon tumor, breast, melanoma or bladder tumor xenograft-bearing mice to evaluate the anti-tumor effect of piperlongumine. We examined EJ human bladder cancer cell xenografts (non-functional p53) to evaluate anti-tumor effects. A total of 2×10^6 EJ cells or SW480 cells were implanted subcutaneously on opposite site flanks in each of six nude/nude mice in each group. When tumor masses grew to ˜5-10 mm in diameter, piperlongumine was administered intraperitoneally (28 ug per each intraperitoneal administration, total 1.2 mg/kg) every 48 hours for 12 days (6 times total).
# [1] = test system: drug-resistant A549 lung cancer cell lines; experiment: Tumor cell killing in drug-resistant A549 lung cancer cell lines; format: cell-based, human
# Experimental: The tumor growth inhibitory effect of piperlongumine was evaluated in a variety of human cancer cell lines. Cells were grown in ˜50-70% confluency and treated with piperlongumine and known anti-cancer agents at various concentrations (0.1-30 μM) and analyzed for cell death or viability by SRB (Sulforhodamine B) staining assay. The SRB assay is a well established assay that is used for the detection of cell death, viability or proliferation in drug screening.
# Tumor cell killing by piperlongumine was also tested in drug-resistant A549 lung cancer cell lines and compared to known anti-cancer agents (see FIG. 19).
# [2] = test system: p120ctn/vimentin/N-cadherin complex; experiment: Vimentin immunoprecipitation / p120ctn Western blot in EJ cells; format: cell-based, human; conditions: 10 μM
# Experimental: It is well-established that Twist plays a major role in tumor development and metastasis. Thus, we investigated whether piperlongumine (SP2007) mechanistically regulates a key signaling pathway involving a complex of p120ctn/vimentin/N-cadherin which is a Twist target that promotes tumor cell migration and invasion/metastasis. EJ cells were treated with 10 μM piperlongumine or vehicle for 20 hours and cell lysates were subsequently immunoprecipitated by Vimentin antibody (Sigma Aldrich, St. Louis, Mo.) followed by western blot against p120ctn to analyze the association of the p120ctn/vimentin/N-cadherin complex.
# EJ cells were treated with piperlongumine (SP2007) (10 μM) for 12 hours. Subsequently the cells were harvested and subjected to immunoprecipitations using vimentin antibodies (Sigma Aldrich) to precipitate the vimentin complex. Western blots were performed for p120 CTN and vimentin. DMSO (D) treated cells were used as control IP experiments.
# Twist and N-cadherin = experiment: Histological examination of Twist and N-cadherin in MMTV-PyVT mammary tumors; format: in vivo, mouse; conditions: i.p. total 2.4 mg/kg daily for two weeks
# Experimental: (§1) A scheme for piperlongumine (SP2007)-mediated repression of Twist expression and its downstream targets that are involved in tumor invasion/metastasis is presented in FIG. 39A. […] U2OS and EJ cells were treated with SP2007 at two concentrations (10 μM and 20 μM) as well as with DMSO as a solvent control. After 20 hours, cell lysates were extracted and western blotting was performed against Twist, N-cadherin and p120 catenin (Zymed and Sigma Aldrich). […] Female MMTV-PyVT mice at 8-9 weeks age were chosen for the studies. When tumor sizes grew to ˜5-6 mm in diameter, SP2007 or DMSO was administered intraperitoneally (I.P., total 2.4 mg/kg of SP2007) daily for two weeks. After two weeks treatment, mice were sacrificed and mammary tumors excised and processed for histological examination.
# miRNA-10b = experiment: miRNA microarray analysis in U2OS and EJ cells; format: cell-based, human; set-up: dose or concentration left out as unconfirmed; conditions: 0, 6 and 24 hrs
# Experimental: U2OS cells and EJ cells were treated with piperlongumine ([…]) and total RNA was extracted after 0, 6 and 24 hrs using miRNeasy Mini Kit (Qiagen, Germantown, Md.) according to the manufacturer's instructions. The miRNA microarray analysis was done by LC Sciences (Houston, Tex.). Total RNA (10 μg) was size fractionated (<200 nucleotides) by using a mirVana kit (Ambion, Austin, Tex.) and labeled with Cy3 or Cy5 fluorescent dyes. Dye switching was done to eliminate the dye bias. Pairs of labeled samples were hybridized to dual-channel microarrays. Microarray assays were done on a μParaFlo microfluidics chip with each of the detection probes containing a nucleotide sequence of coding segment complementary to a specific miRNA sequence and a long non-nucleotide molecule spacer that extended the detection probe away from the substrate. miRNA detection signal threshold was defined as twice the maximum background signal. The maximum signal level of background probes was 180. Normalization was done using a cyclic LOWESS (locally weighted regression) method to remove the system-related variations. Data adjustments included data filtering, log2 transformation, and gene centering and normalization (Analysis performed at LCScience). The t-test analysis was conducted between treated and non-treated and U2OS and EJ samples, and miRNA with P values<0.05 were selected for cluster analysis. […]
# Toxicity limit in mice = format: in vivo, mouse
# Experimental: (§2) To avoid toxicity, piperlongumine should be used at less than 2.5 mg/kg in mice. The skilled person will know how to formulate the compounds of the invention in accordance with the solubility by selection of appropriate carriers, solubilizers, etc.
# [3] = test system: Twist, N-cadherin and p120 catenin; experiment: Western blot of Twist, N-cadherin and p120 catenin in EJ and U2OS cells; format: cell-based, human; conditions: 10 μM and 20 μM, 20 hours
# Experimental: as §1
# [4] = test system: EJ bladder carcinoma cells; experiment: Persistent effects after removal of the compound in EJ cells; format: cell-based, human
# Experimental: EJ bladder carcinoma cells were treated with SP2007 (P10: 10 μM and P20: 20 μM), taxol (T10: 10 nM and T20: 20 nM) or DMSO vehicle control for either 20 hrs or 3 hrs. For the 20 hrs experiment, the percentages of remaining living cells ware measured on the end of the 20 hrs treatment time point. […] For the 3 hrs experiment, cells were washed 3 times with PBS after treatment with the and incubated for another 6 hrs in growing medium without SP2007, taxol or DMSO.
# [5] = test system: immortalized human breast epithelial cells; experiment: DNA damage markers in immortalized human breast epithelial cells; format: cell-based; conditions: taxol 10 nM
# Excerpt: The conditions and time of exposure are indicated in the legend of the figure.
# [6] = Precipitation on dilution of DMSO solution; format: physicochemical; conditions: diluted 1:10 in phosphate buffered saline or water
# Experimental: as §2
# [7] = Long-term piperlongumine treatment toxicity in mice; format: in vivo, mouse; conditions: 2.4 mg/kg injected multiple times for 4 weeks
# Experimental: Piperlongumine (2.4 mg/kg) was injected into mice (8 mice per group) multiple times for 4 weeks. […] After 4 weeks the mice were killed and examined for changes in gross histology in target organs.
smiles,measurement,setting,value
"COc1cc(/C=C/C(=O)N2CCC=CC2=O)cc(OC)c1OC [piperlongumine, N-(3,4,5,-trimethoxycinnamoyl)-Δ^3-piperidine-2-one]",killing of breast cancer tumors,breast cancer tumors,effective killing
same,tumor cell growth inhibition compared to other anti-cancer drugs,[1],more effective
same,p120 in the complex precipitated with vimentin,[2]; 12 hours,p120 was not in the complex
same,association of the p120ctn/vimentin/N-cadherin complex,[2]; 20 hours,dissociation
same,N-cadherin expression in mammary tumors,Twist and N-cadherin,inhibits N-cadherin expression
same,Twist expression in mammary tumors,Twist and N-cadherin,inhibits Twist expression
same,miRNA-10b,miRNA-10b,changes the induction of miRNA-10b
same,dose to avoid toxicity,Toxicity limit in mice,less than 2.5 mg/kg
same,"expression of Twist, N-cadherin and p120 catenin",[3],inhibits expression
same,killing of cancer cells after removal of the compound,"[4]; 3 hrs treatment, washed, another 6 hrs in medium without compound",still able to kill cancer cells
same,percentage of remaining living cells,"[4]; 20 hrs treatment, SP2007 10 and 20 μM, taxol 10 and 20 nM",No difference was observed
same,phosphorylated gamma-H2AX and p53,[5],does not result in the induction
same,concentration in DMSO that precipitated out when diluted 1:10,[6],more than 0.25 mg/ml
same,mortality,[7],None of the mice died
same,"gross histology in kidney, liver and lung",[7]; hematoxilin and eosin staining,no change in gross histology
